Source: US9107852B2, “Uses of agonists of delta opioid receptor in cosmetic and dermocosmetic field” (Induchem Holding AG, priority 2012, dated 2015)
Ends that are not written are not given here.

Columns and labels:
[1] = target: T1, delta2 opioid receptor (Mus musculus, UniProt P32300); assay: Agonist effect at the delta2 opioid receptor (DOP), cell impedance; format: cell-based
T1 construct: host or cells: unnamed cells 'bearing the delta2 opioid receptor'
Experimental: Frozen spinach leaves were thawed and disrupted in fine particles a blender. This juice was further treated with ultrasounds to disrupt cells and proteins were recovered by acidic precipitation. These proteins were then digested by several enzymes, including pepsin and papain. The hydrolysate was purified (ultrafiltration), fractionated and stored before testing. Meanwhile, synthetic peptides were ordered from a manufacturer. The peptides and the hydrolysates were tested on cells bearing the delta2 opioid receptor and cell impedance was measured to evaluate the binding activity of the tested compounds (Law and Loh, 1993).
The EC50 values (concentration producing a half-maximal specific response) and IC50 values (concentration causing a half-maximal inhibition of the control specific agonist response) were determined by non-linear regression analysis of the concentration-response curves generated with mean replicate values using Hill equation curve fitting (Y=D+[(A D)/(1+(C/C50)nH)], where Y=specific response, D=minimum specific response, A=maximum specific response, C=compound concentration, and C50=EC50 or IC50, and nH=slope factor).

[2] = system: opioid receptor delta (DOR); assay: Scoring of DOR1 expression in RHE stimulated with cytokines; format: cell-based, human; settings: JAK inhibitor I tested at 10 μM
Experimental: In the present study, the effects of a peptide (YPLDLF, SEQ ID No 1) on the expression of opioid receptor delta (DOR) were researched on a reconstructed human epidermis (RHE) model under basal or stimulated conditions. More precisely, the RHE were stimulated by a mix of cytokines (IL-17+OSM+TNF-α) able to induce a strong inflammatory profile and a psoriatic phenotype in keratinocytes.
Reconstructed human epidermis (RHE) of 11 days old was prepared according to a derived method described by Poumay et al. (2004). These RHE were cultivated at 37° C. and 5% of CO2 in a specific maintenance medium.
The RHE treated under basal conditions were placed in assay medium containing or not (non-stimulated control) the peptide solutions and incubated for 54 hours. For inflammatory conditions, the RHE were placed in assay medium containing or not (stimulated control) the peptide solutions or the reference […] at 10 μM) and pre-incubated for 6 hours. The RHE were then stimulated with a mix of cytokines (IL-17+OSM+TNF-α at 3 ng/ml) and incubated for 48 hours. All experimental conditions were performed in n=3.
At the end of incubation, the supernatants were collected and the RHE were washed in phosphate buffered saline solution (PBS) for immunohistofluorescence analysis. […]

[3] = system: human skin explants; assay: Pro-pigmentation on human skin explants; format: cell-based; settings: within 6 days, 0.3 and 3 PPM
Experimental: This study aims to explore the pro pigmenting activity of an ingredient (peptide YPLDLF, SEQ ID No 1) on human skin explants maintained in survival.
The activity of the product was evaluated by: • histological expertise of general morphology of the skin after Masson trichrome staining, • a visualization of melanin by a silver impregnation. • Immunostaining of Melan-A
Skin explants with a diameter of 10 mm were prepared from plastic surgery skin sample from a person. The explants were placed in survival in a specific growth medium at 37° C. in a humid atmosphere enriched with 5% CO2.
The peptide solutions (at 0.3 PPM or 3 PPM) were applied topically for 2 hours every day using a filter paper discs presoaked in 30 μl of each solution.
At D0, a T0 lot of the explants were removed and cut in half. One half was fixed in buffered formalin and the other half was frozen at −80° C. […]
The melanin was visualized by silver impregnation according to the technique of Masson Fontana variant. Labeled melanin has been evaluated by microscopic examination.
The expression of melanin in the basal layers, was quantified by image analysis using the software Cell-D.
The cell nuclei were colored with a propidium iodide. Labeled Melan-A has been evaluated by microscopic examination and counting of melanocytes Melan-A positive and the results expressed per centimeter of epidermis.

[4] = percent of control specific agonist response (DPDPE)

T1 sequence (P32300 whole entry): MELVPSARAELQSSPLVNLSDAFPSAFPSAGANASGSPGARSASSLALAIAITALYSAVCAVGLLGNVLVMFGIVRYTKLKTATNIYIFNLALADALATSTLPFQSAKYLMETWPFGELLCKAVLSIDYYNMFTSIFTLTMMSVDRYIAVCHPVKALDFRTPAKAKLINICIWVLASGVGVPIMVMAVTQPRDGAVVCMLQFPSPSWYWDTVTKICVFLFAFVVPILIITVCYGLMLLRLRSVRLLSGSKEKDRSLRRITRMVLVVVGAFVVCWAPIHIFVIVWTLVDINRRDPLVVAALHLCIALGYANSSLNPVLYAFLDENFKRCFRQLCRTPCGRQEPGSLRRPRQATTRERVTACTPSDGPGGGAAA

With YPLDLF [YPLDLF] the EC50 [1] was 3.9 µM, the “A (Hill curve fit parameter)” value [1, 4] was −8.3 and the “D (Hill curve fit parameter)” value [1, 4] was 100.0. The “inhibitory effect of the cytokine mix on OPRD1 expression” value [2] was “reversed” and the “production of pigment (melanin) in human skin” value [3] was “activate in a dose dependent manner”.
